Data taken from ChEMBL document CHEMBL3507680, “University of Dundee, Gates Library screen for HepG2 cell viability”.

Test: Human HepG2 cell viability assay in 384 well format
Type: toxicity, cell-based
Design: dose 125 nL, time 70.5 hour; cytotoxicity at 70.5 h: concentration not given beside the values
Conditions: HepG2 cells, read-out: Inhibition

With CC(C)(C)CNC[C@H]1Cn2c(-c3ccccc3)cnc2CO1 as the compound, how does the cytotoxicity at 70.5 h read?
Its cytotoxicity at 70.5 h is -3.54%.

Which cytotoxicity at 70.5 h does the source give for COCC(=O)N[C@H](C)c1onc(-c2ccccc2)c1C(=O)O here?
Its cytotoxicity at 70.5 h is -4.32%.

For COc1ccc(-c2noc([C@@H](C)NC(=O)CC(C)C)c2C(=O)O)cc1, which cytotoxicity at 70.5 h is on record?
The cytotoxicity at 70.5 h was -8.52%.

With Cn1cc(CNC[C@H]2Cn3ccnc3CO2)c2ccccc21 as the compound, how does the cytotoxicity at 70.5 h read?
The cytotoxicity at 70.5 h was -5.61%.

For CNC(=O)C(C)(C)N1CCC[C@H]1C(=O)NC(C)(C)C, which cytotoxicity at 70.5 h is on record?
The cytotoxicity at 70.5 h was 14.3%.

Which cytotoxicity at 70.5 h does the source give for CN1CCC(N2CCN3C(=O)NC[C@H]3C2)CC1 here?
The cytotoxicity at 70.5 h was -3.25%.

With O=C(NC[C@H]1OC[C@@H](NCc2ccc(F)cc2)[C@@H]1O)c1ccncc1 as the compound, how does the cytotoxicity at 70.5 h read?
The cytotoxicity at 70.5 h was 0.548%.

For OCCc1cc(CC2(NCc3ccncc3)COC2)no1, which cytotoxicity at 70.5 h is on record?
Its cytotoxicity at 70.5 h is -4.15%.

With O=C(NC[C@H]1OC[C@@H](NC2CCCCC2)[C@@H]1O)Nc1ccccc1 as the compound, how does the cytotoxicity at 70.5 h read?
Its cytotoxicity at 70.5 h is 15.8%.

For COc1ccc2nc3n(c2c1)[C@@H](CNC(=O)c1cncnc1)COC3, which cytotoxicity at 70.5 h is on record?
The cytotoxicity at 70.5 h was -2.36%.

With Cc1ccc2c(c1)nc1n2[C@@H](CNC(=O)c2ccccn2)COC1 as the compound, how does the cytotoxicity at 70.5 h read?
The cytotoxicity at 70.5 h was 11.4%.

For Cc1nc(C)c(CN2CCOC[C@H](Oc3ccccc3)C2)s1, which cytotoxicity at 70.5 h is on record?
Its cytotoxicity at 70.5 h is -10.6%.

Which cytotoxicity at 70.5 h does the source give for COc1ccc(CN2CCOC[C@H](OCc3ccccc3)C2)cc1 here?
The cytotoxicity at 70.5 h was -8.76%.

With COc1ccc(CN2CCOC[C@H](OCCC(C)C)C2)cc1 as the compound, how does the cytotoxicity at 70.5 h read?
The cytotoxicity at 70.5 h was -4.37%.

With Cc1cccc2c1nc1n2[C@@H](CNC(=O)c2cncnc2)COC1 as the compound, how does the cytotoxicity at 70.5 h read?
The cytotoxicity at 70.5 h was -3.15%.

For O=C(C1CCOCC1)N1CCN2C(=O)N(Cc3ccc(F)cc3)C[C@H]2C1, which cytotoxicity at 70.5 h is on record?
Its cytotoxicity at 70.5 h is -3.96%.

With c1ccc(O[C@H]2COCCN(Cc3c[nH]c4ccccc34)C2)cc1 as the compound, how does the cytotoxicity at 70.5 h read?
Its cytotoxicity at 70.5 h is -6.76%.

With COc1ccc(O[C@H]2COCCN(C(=O)c3ccno3)C2)cc1 as the compound, how does the cytotoxicity at 70.5 h read?
Its cytotoxicity at 70.5 h is -2.74%.

With CC(C)(C)CN1CCOC[C@H]1c1nc(-c2cccc(F)c2)c[nH]1 as the compound, how does the cytotoxicity at 70.5 h read?
Its cytotoxicity at 70.5 h is -6.97%.

For CN1C[C@@H](F)[C@@H](OCc2nc3ccc(C#N)cc3[nH]2)C1, which cytotoxicity at 70.5 h is on record?
Its cytotoxicity at 70.5 h is -2.32%.

For CC(C)c1noc([C@@H]2Cc3[nH]cnc3CN2C(=O)Nc2ccccc2)n1, which cytotoxicity at 70.5 h is on record?
The cytotoxicity at 70.5 h was 9.88%.

Which cytotoxicity at 70.5 h does the source give for O=C1CO[C@H]2CN(S(=O)(=O)c3ccccc3)C[C@H]2N1c1ccccc1 here?
The cytotoxicity at 70.5 h was -8.37%.

For O=C1CO[C@H]2CN(Cc3cccnc3)C[C@H]2N1, which cytotoxicity at 70.5 h is on record?
Its cytotoxicity at 70.5 h is -1.16%.

Which cytotoxicity at 70.5 h does the source give for Cc1noc([C@@H]2C[C@H](NC(=O)NC(C)C)CN2C)n1 here?
Its cytotoxicity at 70.5 h is -0.832%.

With CC(=O)N1CCC(NC2(Cc3cc(CN(C)C)on3)COC2)CC1 as the compound, how does the cytotoxicity at 70.5 h read?
Its cytotoxicity at 70.5 h is 11.9%.

For Cc1ccc(CNC2(Cc3cc(-c4ccc(F)cc4)on3)COC2)o1, which cytotoxicity at 70.5 h is on record?
Its cytotoxicity at 70.5 h is -2.05%.

With Cc1ccccc1C(=O)Nc1ccc([C@H]2OCC(=O)N(C)[C@@H]2CO)cc1 as the compound, how does the cytotoxicity at 70.5 h read?
The cytotoxicity at 70.5 h was -0.197%.

Which cytotoxicity at 70.5 h does the source give for COc1ccccc1CN1C[C@@H](F)[C@@H](OCc2nc3ncccc3[nH]2)C1 here?
The cytotoxicity at 70.5 h was -0.841%.

With Cc1cccc2c1nc1n2[C@@H](CNC(=O)NC(C)C)COC1 as the compound, how does the cytotoxicity at 70.5 h read?
Its cytotoxicity at 70.5 h is -0.416%.

For Fc1ccc2c(c1)nc1n2[C@@H](CNCc2nccs2)COC1, which cytotoxicity at 70.5 h is on record?
Its cytotoxicity at 70.5 h is -7.36%.

Which cytotoxicity at 70.5 h does the source give for COc1ccc2nc(C[C@@H]3C[C@@H](C(C)C)[C@H](CN(C)C)C=C3C)[nH]c2n1 here?
The cytotoxicity at 70.5 h was -3.85%.

With CC(C)(C)C(=O)N1C[C@@H](F)[C@@H](OCc2nc3ncccc3[nH]2)C1 as the compound, how does the cytotoxicity at 70.5 h read?
Its cytotoxicity at 70.5 h is -2.41%.

For N#Cc1cccc(CN2C[C@@H](F)[C@@H](OCc3nc4cnccc4[nH]3)C2)c1, which cytotoxicity at 70.5 h is on record?
The cytotoxicity at 70.5 h was 11.4%.

Which cytotoxicity at 70.5 h does the source give for COc1cccc(CN2C[C@@H](F)[C@@H](OCc3nc4cnccc4[nH]3)C2)c1 here?
The cytotoxicity at 70.5 h was 2.35%.

Which cytotoxicity at 70.5 h does the source give for Fc1ccc2[nH]c(CO[C@H]3CN(CC4CC4)C[C@H]3F)nc2c1 here?
Its cytotoxicity at 70.5 h is 1.66%.

For O=C(NC[C@H]1OC[C@@H](NC2CCC(F)(F)CC2)[C@@H]1O)Nc1ccccc1, which cytotoxicity at 70.5 h is on record?
The cytotoxicity at 70.5 h was 0.362%.

Which cytotoxicity at 70.5 h does the source give for O=C(NC[C@H]1OC[C@@H](NC2CCOCC2)[C@@H]1O)C1CCCC1 here?
The cytotoxicity at 70.5 h was -6.06%.

Which cytotoxicity at 70.5 h does the source give for c1ccc(O[C@H]2COCCN(Cc3cccc4c3OCO4)C2)cc1 here?
The cytotoxicity at 70.5 h was -1.37%.

Which cytotoxicity at 70.5 h does the source give for Cc1cc(C(=O)N2CCOC[C@H](Oc3cccnc3)C2)c(C(F)(F)F)o1 here?
Its cytotoxicity at 70.5 h is 9.27%.

Which cytotoxicity at 70.5 h does the source give for Cc1ccc(S(=O)(=O)NC[C@H]2OC[C@@H](NCc3cccs3)[C@@H]2O)cc1 here?
The cytotoxicity at 70.5 h was 7.42%.

For O=C(NC1CCCC1)O[C@H]1COCCN(c2nc3ccccc3o2)C1, which cytotoxicity at 70.5 h is on record?
The cytotoxicity at 70.5 h was -3.6%.

With Cc1ccc(-c2cn3c(n2)CO[C@@H](CNCc2nccs2)C3)cc1 as the compound, how does the cytotoxicity at 70.5 h read?
Its cytotoxicity at 70.5 h is -2.93%.

Which cytotoxicity at 70.5 h does the source give for CNC(=O)c1ccc(OC2CCN(S(C)(=O)=O)CC2)c(Cl)c1 here?
The cytotoxicity at 70.5 h was 3.83%.

With CCn1ncnc1C(C)NC(=O)C1CCN(C(C)C)CC1 (stereo not given) as the compound, how does the cytotoxicity at 70.5 h read?
The cytotoxicity at 70.5 h was -8.56%.

For Cc1cc(C)c2nc(CN3CCOC(CCO)C3)cc(O)c2c1 (stereo not given), which cytotoxicity at 70.5 h is on record?
The cytotoxicity at 70.5 h was -4.44%.

For COc1ccc(C2CC(=O)Nc3c2nc2n3CCCC2)cc1O (stereo not given), which cytotoxicity at 70.5 h is on record?
The cytotoxicity at 70.5 h was -15.2%.

Which cytotoxicity at 70.5 h does the source give for O=C(c1cccc(=O)[nH]1)N(Cc1ccsc1)CC1CCCO1 (stereo not given) here?
Its cytotoxicity at 70.5 h is 5.57%.

Which cytotoxicity at 70.5 h does the source give for Cc1ccc(S(=O)(=O)NC2CC2)cc1C here?
Its cytotoxicity at 70.5 h is -5.86%.

Which cytotoxicity at 70.5 h does the source give for O=C(c1ccncc1)N1C[C@@H]2CC[C@H](C1)N(C(=O)N1CCOCC1)C2 here?
Its cytotoxicity at 70.5 h is -7.89%.

With CCCc1cc(CNC(=O)C2CCOc3ccccc3C2)on1 (stereo not given) as the compound, how does the cytotoxicity at 70.5 h read?
The cytotoxicity at 70.5 h was 2.98%.

With Cc1nnc(CCNC2CCN(c3ncnc4c(C)csc34)CC2)s1 as the compound, how does the cytotoxicity at 70.5 h read?
Its cytotoxicity at 70.5 h is -2.85%.

Which cytotoxicity at 70.5 h does the source give for CC(C)NC(=O)c1nnn(-c2cccc(C(F)(F)F)c2)c1N here?
The cytotoxicity at 70.5 h was -4.84%.

With COC(=O)c1cc(OCC2CCC2)cc(C(=O)N[C@@H]2CNCC[C@H]2O)c1 as the compound, how does the cytotoxicity at 70.5 h read?
Its cytotoxicity at 70.5 h is 19.4%.

With COCCN(C)C[C@@H]1CN(C(=O)c2cccc(C(F)(F)F)c2)C[C@@H]1CO as the compound, how does the cytotoxicity at 70.5 h read?
The cytotoxicity at 70.5 h was -9.39%.

For Cc1c[nH]c(CN(C)C(=O)C2CC(=O)N(Cc3ccncc3)C2)n1 (stereo not given), which cytotoxicity at 70.5 h is on record?
The cytotoxicity at 70.5 h was 11.9%.

For Cc1cc(C)n(-c2cc(N3CCN(C(=O)C(C)(C)C)CC3)nc(C)n2)n1, which cytotoxicity at 70.5 h is on record?
The cytotoxicity at 70.5 h was 2.21%.

With CN(c1ccc(C(=O)NCCCN2CCOCC2)c(Cl)c1)S(C)(=O)=O as the compound, how does the cytotoxicity at 70.5 h read?
The cytotoxicity at 70.5 h was -8.19%.

For CCN(c1ccc(C(=O)N2CCCC(C)C2)cc1)S(=O)(=O)CC (stereo not given), which cytotoxicity at 70.5 h is on record?
Its cytotoxicity at 70.5 h is -4.35%.

Which cytotoxicity at 70.5 h does the source give for CCC(C(=O)NCc1ccncc1)N(c1cccc(C)c1)S(C)(=O)=O (stereo not given) here?
The cytotoxicity at 70.5 h was -9.28%.

Which cytotoxicity at 70.5 h does the source give for Cc1cccc(C(=O)Nc2ccc(OC3CCN(C)CC3)cc2)c1 here?
Its cytotoxicity at 70.5 h is 19.2%.

For COCCCC1CCCN(C(=O)CCc2cc(O)no2)C1 (stereo not given), which cytotoxicity at 70.5 h is on record?
Its cytotoxicity at 70.5 h is -1.74%.

With CN1CCC(CCNC(=O)c2ccc(N(C)S(C)(=O)=O)cc2Cl)CC1 as the compound, how does the cytotoxicity at 70.5 h read?
The cytotoxicity at 70.5 h was -7.69%.

With Cc1nc(C2CCCN(C(=O)CO)C2)cc(N2CCOCC2)n1 (stereo not given) as the compound, how does the cytotoxicity at 70.5 h read?
Its cytotoxicity at 70.5 h is -4.97%.

For N#Cc1ccccc1CN1C[C@@H]2CC[C@H](C1)N(CC1CC1)C2=O, which cytotoxicity at 70.5 h is on record?
The cytotoxicity at 70.5 h was -7.57%.

With COc1ccc(OCc2cc(C(=O)N3CCN[C@H](C)C3)n[nH]2)c(Cl)c1 as the compound, how does the cytotoxicity at 70.5 h read?
The cytotoxicity at 70.5 h was -9.79%.

With CN(C)S(=O)(=O)N1CCN(c2ccnc(N3CCCC3)n2)CC1 as the compound, how does the cytotoxicity at 70.5 h read?
Its cytotoxicity at 70.5 h is -12.4%.

For Cc1ccc([C@@H]2CN(S(=O)(=O)N(C)C)C[C@H]2N(C)C)cc1, which cytotoxicity at 70.5 h is on record?
Its cytotoxicity at 70.5 h is -5.83%.

With NC(=O)C1CCN(C(=O)CCn2ccc3cc(Br)ccc32)CC1 as the compound, how does the cytotoxicity at 70.5 h read?
The cytotoxicity at 70.5 h was -1.61%.

With CCCS(=O)(=O)N1CCN(c2cc(-n3cnc(C)c3C)nc(C)n2)CC1 as the compound, how does the cytotoxicity at 70.5 h read?
Its cytotoxicity at 70.5 h is -4.37%.

Which cytotoxicity at 70.5 h does the source give for CCOC(=O)N1CCN(C(=O)c2ccc3ccn(C)c3c2)CC1 here?
The cytotoxicity at 70.5 h was -8.79%.

Which cytotoxicity at 70.5 h does the source give for C[C@@H](NC(=O)c1cccs1)c1onc(-c2cccnc2)c1C(=O)O here?
The cytotoxicity at 70.5 h was 2.92%.

Which cytotoxicity at 70.5 h does the source give for CCNC(=O)[C@@H]1CCCN1[C@@H](C(=O)NC)c1ccccc1 here?
Its cytotoxicity at 70.5 h is -8.33%.

Which cytotoxicity at 70.5 h does the source give for COCCOC[C@]1(CNCc2ccc(OC)cc2)C[C@@H](O)[C@@H](O)C1 here?
Its cytotoxicity at 70.5 h is -7.9%.

For CNC(=O)[C@@H](c1ccccc1OC)N1CCC[C@H]1C(=O)NC(C)(C)C, which cytotoxicity at 70.5 h is on record?
The cytotoxicity at 70.5 h was -8.72%.

Which cytotoxicity at 70.5 h does the source give for COc1cccc(CNC[C@@]2(COc3cccnc3)C[C@@H](O)[C@@H](O)C2)c1 here?
Its cytotoxicity at 70.5 h is -3.95%.
